Test results published in US20230023009A1, “HETEROCYCLIC COMPOUNDS AND METHODS OF USE THEREOF” (SPARCBIO LLC, priority 2020, published 2023).
Like-named read-outs stand apart in the source and are kept apart here.

Tests used:
[1] = tested on: MIA PaCa-2 subcutaneous xenograft tumors
Procedure: MIA PaCa-2 cells were injected subcutaneously (10×10^6 cells in 0.2 mL of PBS with Matrigel (1:1)) into the right flanks of 6-8-week-old female BALB/c nude mice and allowed to grow until the average tumor size reached 150-200 mm^3. The mice were then stratified into treatment groups of 8 animals and treatment initiated on Day 0. Test compound or vehicle (1% Tween 80, 2% HPMC, and 97% water) was administered orally, once daily, for 14 days with an observational phase to monitor tumor growth post-treatment. Tumor size was measured twice weekly in two dimensions using a caliper, and the volume was expressed in mm^3 using the formula: V=(a×b^2/2) where a and b are the long and short diameters of the tumor, respectively. Tumor Growth Inhibition (TGI) was calculated for each group using the formula: TGI %=(1−Ti/Vi)×100, where Ti is the mean tumor volume of the treatment group on the measurement day, and Vi is the mean tumor volume of the control group on the measurement day. Animal body weight was monitored regularly as an indicator of toxicity. […] Data points represent the group mean, and error bars represent the standard error of the mean (SEM).

KRAS G12C protein = KRAS G12C protein (Homo sapiens, UniProt P01116, G12C); assay: Nucleotide exchange assay (Method III, KRAS G12C/Raf-RBD TR-FRET); assay type: biochemical; conditions: SOS1-mediated exchange of GDP for GTP, 18 hr compound incubation
Outline: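 His-tagged GDP-bound KRAS G12C (25 nM in 2× mix) was preincubated with an 11-point, 3-fold compound series for 18 hr at 23° C, then SOS1/GTP was added for 1 hr. FLAG-Raf-RBD with Tb-anti-FLAG/D2-anti-His followed for 2 hr at room temperature. TR-FRET was read, and IC50 was obtained by non-linear regression.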

hERG potassium channel = target: T1, hERG potassium channel (Homo sapiens, UniProt Q12809); assay: hERG inhibition assay (manual whole-cell patch-clamp, CHO cells); assay type: cell-based
T1 construct: host or cells: CHO
Procedure: Compounds were tested for the potential to inhibit the hERG potassium channel. It is known that inhibition of the hERG channel may cause QT prolongation and increase the risk of cardiac arrhythmias. Therefore, to avoid cardiotoxicity, a compound with relatively low or no inhibition of the channel is desirable. Manual whole-cell patch-clamp recordings were made in Chinese hamster ovary (CHO) cells stably expressing hERG channels (B'Sys, Switzerland). Standard intracellular and bath solutions for hERG current detection were used. Cells were exposed to test compounds at 6 concentrations prepared by 1:3 serial dilution of compounds from a top starting concentration of 30 μM. Currents were elicited by stepping the voltage from a holding potential of −80 mV to −50 mV (20 ms) and then stepping to +40 mV (4 s). A subsequent step to −50 mV (4 s) was used to elicit a tail current which was used for data analysis. Current recordings were made in triplicate using three different cells. Data normalized to the activity in vehicle (0.1 or 0.3% DMSO) were fit with 4-parameter non-linear regression, and IC50 values were determined from the dose-response curves, using GraphPad Prism software.

Sequence of KRAS G12C protein (P01116 1-188 isoform P01116-2 G12C): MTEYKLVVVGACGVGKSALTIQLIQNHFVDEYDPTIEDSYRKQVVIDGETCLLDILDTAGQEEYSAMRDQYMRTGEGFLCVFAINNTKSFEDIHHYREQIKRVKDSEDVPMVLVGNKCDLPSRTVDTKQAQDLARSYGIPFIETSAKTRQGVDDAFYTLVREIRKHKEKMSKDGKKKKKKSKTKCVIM
T1 sequence (Q12809 whole entry): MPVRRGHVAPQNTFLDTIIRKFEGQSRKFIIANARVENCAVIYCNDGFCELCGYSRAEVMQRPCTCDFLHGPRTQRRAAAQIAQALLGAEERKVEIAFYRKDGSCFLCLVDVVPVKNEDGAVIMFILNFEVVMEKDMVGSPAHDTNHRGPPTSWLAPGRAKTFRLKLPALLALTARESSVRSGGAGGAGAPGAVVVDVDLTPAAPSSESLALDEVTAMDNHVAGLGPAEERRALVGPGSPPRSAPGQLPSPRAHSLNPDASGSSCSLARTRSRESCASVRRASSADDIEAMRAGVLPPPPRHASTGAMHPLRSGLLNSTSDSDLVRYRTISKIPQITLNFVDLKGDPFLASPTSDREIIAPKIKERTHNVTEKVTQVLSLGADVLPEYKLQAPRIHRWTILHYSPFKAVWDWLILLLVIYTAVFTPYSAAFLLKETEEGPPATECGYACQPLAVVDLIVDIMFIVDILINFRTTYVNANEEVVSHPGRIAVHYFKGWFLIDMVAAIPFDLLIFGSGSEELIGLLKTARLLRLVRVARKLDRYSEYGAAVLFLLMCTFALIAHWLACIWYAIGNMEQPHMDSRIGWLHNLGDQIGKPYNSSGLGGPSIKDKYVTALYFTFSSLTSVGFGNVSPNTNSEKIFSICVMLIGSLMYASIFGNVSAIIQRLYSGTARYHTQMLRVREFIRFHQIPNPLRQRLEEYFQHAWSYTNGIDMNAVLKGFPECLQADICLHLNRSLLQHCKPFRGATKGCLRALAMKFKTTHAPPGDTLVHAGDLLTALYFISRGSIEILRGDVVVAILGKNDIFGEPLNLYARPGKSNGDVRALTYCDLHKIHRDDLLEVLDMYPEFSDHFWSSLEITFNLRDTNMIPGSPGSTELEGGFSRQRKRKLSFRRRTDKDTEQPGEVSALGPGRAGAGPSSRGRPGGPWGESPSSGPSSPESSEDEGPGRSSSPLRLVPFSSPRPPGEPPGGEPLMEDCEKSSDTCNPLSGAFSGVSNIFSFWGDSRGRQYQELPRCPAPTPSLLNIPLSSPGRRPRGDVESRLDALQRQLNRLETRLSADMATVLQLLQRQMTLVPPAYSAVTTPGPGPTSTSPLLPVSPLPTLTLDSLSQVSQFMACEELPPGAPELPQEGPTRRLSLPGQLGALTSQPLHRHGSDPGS

C=C(F)C(=O)N1CCN(c2nc(OC[C@@H]3CCCN3C)nc3c2CO[C@@H](c2cccc4cccc(Cl)c24)C3)C[C@@H]1CC#N (single isomer, unassigned) [43 (Isomer B)]
TGI ([1]; 10 mg/kg orally once daily, Day 14 after treatment start): 9.0%
TGI ([1]; 30 mg/kg orally once daily, Day 14 after treatment start (day not restated for comparator)): 75.5%
TGI ([1]; 100 mg/kg orally once daily, Day 14 after treatment start): 94.6%
tolerability (from body weight) ([1]; orally once daily for 14 days): well-tolerated
IC50 (KRAS G12C protein): ≤ 0.3 µM
IC50 (hERG potassium channel): 3.61 µM
